# In patent US20220031800A1, “PEPTIDES FOR TREATING NON-EXUDATIVE MACULAR DEGENERATION AND OTHER DISORDERS OF THE EYE” (Allegro Pharmaceuticals, LLC, priority 2019, published 2022):
# Square brackets hold non-standard residues; d marks the D form. Peptide text beside a SMILES is read from it. Cya = N[C@@H](CS(=O)(=O)O)C(=O)O
# Columns and labels:
# [1] = tested on: human retinal Müller cells (MIO-M1); assay: MTT cell viability of human Müller cells (MIO-M1); type: cell-based; conditions: 24 hours, normalized to untreated control as 100%
# Method: Purpose: To determine the effects of risuteganib and anti-VEGF drugs on the cell viability of cultured human retinal Müller cells (MIO-M1).
# Methods: The immortalized human retinal Müller cell line (MIO-M1) was obtained from the Department of Cell Biology of the University College, London. Cells were cultured in Dulbecco's Modified Eagle's Medium (DMEM) and plated in 96-well plates for 24 hours before treatment with 0.5×, 1× or 2× concentrations of 1 mg/50 μL risuteganib, or 1× of ranibizumab, bevacizumab or aflibercept. Dosage was based on clinical dose of each compound. The experiments were repeated 3 times with 7-8 replicates each. After 24 hours of drug treatment, MTT NAD(P)H-dependent colorimetric assay was used to assess the number of viable cells present in the cultures. Absorbance ratios were normalized to untreated control as 100%. Statistical analysis was performed in GraphPad Prism software program.
# [2] = tested on: primary human RPE cells; assay: ROS level (CM-H2DCFDA) in primary human RPE cells exposed to hydroquinone; type: cell-based; conditions: 0.4 mM risuteganib co-treatment with HQ 125-180 uM
# Method: Purpose: To determine if risuteganib protects against hydroquinone (HQ)-mediated cell injury, elevated ROS level and reduced mitochondrial membrane potential (Δψm) in cultured human RPE cells. Elevated ROS levels increase oxidative stress in the cells, leading to reduced cell health and cell death. Loss of ΔΨm is a marker for early cell death. Methods: Primary human RPE cells were seeded on collagen-coated 96-well plates in triplicates at 8K, 10K and […] cells/well, respectively. Cells reached 80% to 100% confluence 24 hours after plating, and confluent cells were then grown for an additional 4 or 5 days until growth was density arrested. On day 6 after plating, cells in the plate upper half were loaded with 20 μM CM-H2DCFDA (measures ROS level) and in the plate lower half with 10 μM JC-1 (measures Δψm) for 30 minutes at 37° C. […] For the ROS and Δψm assays, a fluorescence plate reader was used to quantify ROS production (490-nm excitation, 522-nm emission), and green monomer of JC-1 (490-nm excitation, 522-nm emission) and red JC-1 aggregate (535-nm excitation, 590-nm emission), respectively. […] The WST reagent was quantified with a plate reader at 440 nm and a reference wavelength at 690 nm. Data were normalized to untreated control as 100% and were expressed as the mean±SD.
smiles,measurement,setting,value
"C[C@@H](O)[C@H](NC(=O)[C@H](CS(=O)(=O)O)NC(=O)CNC(=O)[C@H](CCCNC(=N)N)NC(=O)CN)C(=O)N1CCC[C@H]1C(=O)O [risuteganib, Glycyl-L-arginylglycyl-3-sulfo-L-alanyl-L-threonyl-L-proline] (H-GRG[Cya]TP-OH)",Cell viability (MTT),[1]; 0.5× of 1 mg/50 μL,111.3±2.189
same,Cell viability (MTT),[1]; 1× of 1 mg/50 μL,113.5±13.5
same,Cell viability (MTT),[1]; 2× of 1 mg/50 μL,100.3±7.8
same,Reduction of HQ-induced ROS production,[2],61%
